# Assay results reported in patent US7288659B2, “Acylaminothiazole derivatives, their preparation and therapeutic use” (Sanofi-Aventis, priority 2001, dated 2007).
# Where a name gives a salt, the structure may show the parent alone.
row,SMILES,melting point
1,"CCOCc1ccccc1-c1cnc(NC(=O)C(C)NC(=O)Cc2cc(F)cc(F)c2)s1 (stereo not shown) [compound 3, 2-{[2-(3,5-difluorophenyl)acetyl]amino}-N-{5-[2-(ethoxymethyl)phenyl]-1,3-thiazol-2-yl}propanamide]",165 °C
2,"CCC[C@H](NC(=O)Cc1cc(F)cc(F)c1)C(=O)Nc1nc(C)c(-c2ccccc2COC2CCCCC2)s1 [compound 52, (2S)-N-(5-{2-[(cyclohexyloxy)methyl]phenyl}-4-methyl-1,3-thiazol-2-yl)-2-{[2-(3,5-difluorophenyl)-acetyl]amino}pentanamide]",94 °C
3,"COc1cccc(CC(=O)N[C@@H](C)C(=O)Nc2ncc(-c3ccccc3COC3CCCCC3)s2)c1 [compound 34, (2S)-N-(5-{2-[(cyclohexyloxy)methyl]phenyl}-1,3-thiazol-2-yl)-2-{[2-(3-methoxyphenyl)acetyl]amino}-propanamide]",94 °C
4,"C[C@H](NC(=O)[C@@H](O)c1cc(F)cc(F)c1)C(=O)Nc1ncc(-c2ccccc2COC2CCCCC2)s1 [Compound No. 51, (2S)-N-(5-{2-[(cyclohexyloxy)methyl]phenyl}-1,3-thiazol-2-yl)-2-{[(2S)-2-(3,5-difluorophenyl)-2-hydroxyacetyl]amino}propanamide]",159 °C
5,"CCC[C@H](NC(=O)Cc1cc(F)cc(F)c1)C(=O)Nc1ncc(-c2ccccc2COC(C)C)s1 [compound 72, (2S)-2-{[2-(3,5-difluorophenyl)acetyl]amino}-N-{5-[2-(isopropoxymethyl)phenyl]-1,3-thiazol-2-yl}pentanamide]",74 °C
6,"C[C@H](NC(=O)Cc1cccc(Cl)c1)C(=O)Nc1ncc(-c2ccccc2COC2CCCCC2)s1 [compound 18, (2S)-2-{[2-(3-chlorophenyl)acetyl]amino}-N-{5-{2-[(cyclohexyloxy)methyl]phenyl}-1,3-thiazol-2-yl}propanamide]",96 °C
7,"CC(C)COCc1ccccc1-c1cnc(NC(=O)C(C)NC(=O)Cc2cc(F)cc(F)c2)s1 (stereo not shown) [compound 4, 2-{[2-(3,5-difluorophenyl)acetyl]amino}-N-{5-[2-(isobutoxymethyl)phenyl]-1,3-thiazol-2-yl}propanamide]",181 °C
8,"Cc1nc(NC(=O)C(C)NC(=O)Cc2cc(F)cc(F)c2)sc1-c1ccccc1COC1CCCCC1 (stereo not shown) [compound 12, N-(5-{2-[(cyclohexyloxy)methyl]phenyl}-4-methyl-1,3-thiazol-2-yl)-2-{[2-(3,5-difluorophenyl)acetyl]-amino}propanamide]",152 °C
9,"CCC[C@H](NC(=O)Cc1cc(F)cc(F)c1)C(=O)Nc1nc(C)c(-c2ccccc2COC2CCN(C)CC2)s1 (as salt: phosphate) [compound 68, (2S)-N-(5-{2-[(N-methylpiperidin-4-yloxy)methyl]-phenyl}-4-methyl-1,3-thiazol-2-yl)-2-{[2-(3,5-difluorophenyl)acetyl]amino}pentanamide]",186 °C
10,"CC(NC(=O)Cc1ccccc1)C(=O)Nc1ncc(-c2ccccc2COC2CCCCC2)s1 (stereo not shown) [compound 11, N-(5-{2-[(cyclohexyloxy)methyl]phenyl}-1,3-thiazol-2-yl}-2-[(2-phenylacetyl)amino]propanamide]",162 °C
11,"CC(NC(=O)Cc1cc(F)cc(F)c1)C(=O)Nc1ncc(-c2ccccc2COC2CCCCC2)s1 (stereo not shown) [Compound No. 2, N-(5-{2-[(cyclohexyloxy)methyl]phenyl}-1,3-thiazol-2-yl)-2-{[2-(3,5-difluorophenyl)acetyl]amino}propanamide]",126 °C
12,"CCCC[C@H](NC(=O)Cc1cc(F)cc(F)c1)C(=O)Nc1ncc(-c2ccccc2COC2CCCCC2)s1 [compound 47, (2S)-N-(5-{2-[(cyclohexyloxy)methyl]phenyl}-1,3-thiazol-2-yl)-2-{[2-(3,5-difluorophenyl)acetyl]amino}-hexanamide]",77.6 °C
13,"CCC[C@H](NC(=O)C(=O)c1cc(F)cc(F)c1)C(=O)Nc1ncc(-c2ccccc2COC2CCCCC2)s1 [compound 60, (2S)-N-(5-{2-[(cyclohexyloxy)methyl]phenyl}-1,3-thiazol-2-yl)-2-{[2-(3,5-difluorophenyl)-2-oxoacetyl]-amino}pentanamide]",77 °C
14,"CC[C@H](NC(=O)Cc1cc(F)cc(F)c1)C(=O)Nc1ncc(-c2ccccc2COC(C)C)s1 [compound 70, (2S)-2-{[2-(3,5-difluorophenyl)acetyl]amino}-N-{5-[2-(isopropoxymethyl)phenyl]-1,3-thiazol-2-yl}butanamide]",73 °C
15,"CCC[C@H](NC(=O)Cc1cc(F)cc(F)c1)C(=O)Nc1nc(C(C)C)c(-c2ccccc2COC2CCCCC2)s1 [compound 63, (2S)-N-(5-{2-[(cyclohexyloxy)methyl]phenyl}-4-isopropyl-1,3-thiazol-2-yl)-2-{[2-(3,5-difluorophenyl)-acetyl]amino}pentanamide]",74 °C
16,"COc1cc(CC(=O)N[C@@H](C)C(=O)Nc2ncc(-c3ccccc3COC3CCCCC3)s2)cc(OC)c1 [compound 35, (2S)-N-(5-{2-[(cyclohexyloxy)methyl]phenyl}-1,3-thiazol-2-yl)-2-{[2-(3,5-dimethoxyphenyl)acetyl]amino}-propanamide]",73 °C
17,"CC(C)C(NC(=O)Cc1cc(F)cc(F)c1)C(=O)Nc1ncc(-c2ccccc2COC2CCCCC2)s1 (stereo not shown) [compound 10, N-(5-{2-[(cyclohexyloxy)methyl]phenyl}-1,3-thiazol-2-yl}-2-{[2-(3,5-difluorophenyl)acetyl]amino}-3-methylbutanamide]",181 °C
18,"CC(C)(C)[C@H](NC(=O)Cc1cc(F)cc(F)c1)C(=O)Nc1ncc(-c2ccccc2COC2CCCCC2)s1 [compound 37, (2S)-N-(5-{2-[(cyclohexyloxy)methyl]phenyl}-1,3-thiazol-2-yl)-2-{[2-(3,5-difluorophenyl)acetyl]amino}-3,3-dimethylbutanamide]",73 °C
19,"C[C@H](NC(=O)Cc1cc(F)cc(F)c1)C(=O)Nc1ncc(-c2ccccc2COc2ccccc2)s1 [compound 21, (2S)-2-{[2-(3,5-difluorophenyl)acetyl]amino}-N-{5-[2-(phenoxymethyl)phenyl]-1,3-thiazol-2-yl}propanamide]",78 °C
20,"CCC[C@H](NC(=O)Cc1cc(F)cc(F)c1)C(=O)Nc1nc(CC)c(-c2ccccc2COC2CCCCC2)s1 [compound 59, (2S)-N-(5-{2-[(cyclohexyloxy)methyl]phenyl}-4-ethyl-1,3-thiazol-2-yl)-2-{[2-(3,5-difluorophenyl)-acetyl]amino}pentanamide]",80 °C
21,"CCC[C@H](NC(=O)C(F)c1cc(F)cc(F)c1)C(=O)Nc1ncc(-c2ccccc2COC2CCCCC2)s1 (stereo partly drawn) [compound 64, (2S)-N-(5-{2-[(cyclohexyloxy)methyl]phenyl}-1,3-thiazol-2-yl)-2-{[2-(3,5-difluorophenyl)-2-fluoroacetyl]amino}pentanamide]",139 °C
22,"CC[C@H](NC(=O)Cc1cc(F)cc(F)c1)C(=O)Nc1ncc(-c2ccccc2COC2CCCCC2)s1 [compound 32, (2S)-N-(5-{2-[(cyclohexyloxy)methyl]phenyl}-1,3-thiazol-2-yl)-2-{[2-(3,5-difluorophenyl)acetyl]amino}-butanamide]",68 °C
